Assay results from ChEMBL document CHEMBL5131391, “One-pot three-component synthesis of novel pyrazolo[3,4-b]pyridines as potent antileukemic agents” (Eur J Med Chem, 2022).
Values belong to the compound of their own block, whether it stands above or below them. The source made the active and inactive calls. The rule behind the calls is not given here.

Experiments:
MDA-MB-231 = assay: Antiproliferative activity against human MDA-MB-231 cells assessed as growth inhibition at 10 uM measured after 48 hrs by NCI protocol based SRB assay relative to control; assay type: functional; details: read-out: GI
SF-539 = assay: Antiproliferative activity against human SF-539 cells assessed as growth inhibition at 10 uM measured after 48 hrs by NCI protocol based SRB assay relative to control; assay type: functional; details: read-out: GI
K562 [1] = assay: Antiproliferative activity against human K562 cells assessed as reduction in cell viability incubated for 72 hrs by resazurin dye based assay; assay type: functional; details: K562, 72 h
UACC-62 = assay: Antiproliferative activity against human UACC-62 cells assessed as growth inhibition at 10 uM measured after 48 hrs by NCI protocol based SRB assay relative to control; assay type: functional; details: read-out: GI
K562 [2] = assay: Antiproliferative activity against human K562 cells assessed as growth inhibition at 10 uM measured after 48 hrs by NCI protocol based SRB assay relative to control; assay type: functional; details: read-out: GI
MCF7 = assay: Antiproliferative activity against human MCF7 cells assessed as growth inhibition at 10 uM measured after 48 hrs by NCI protocol based SRB assay relative to control; assay type: functional; details: read-out: GI
PC-3 = assay: Antiproliferative activity against human PC-3 cells assessed as growth inhibition at 10 uM measured after 48 hrs by NCI protocol based SRB assay relative to control; assay type: functional; details: read-out: GI
SW-620 = assay: Antiproliferative activity against human SW-620 cells assessed as growth inhibition at 10 uM measured after 48 hrs by NCI protocol based SRB assay relative to control; assay type: functional; details: read-out: GI
IGROV-1 = assay: Antiproliferative activity against human IGROV-1 cells assessed as growth inhibition at 10 uM measured after 48 hrs by NCI protocol based SRB assay relative to control; assay type: functional; details: read-out: GI
NCI/ADR-RES = assay: Antiproliferative activity against human NCl/ADR-RES cells assessed as growth inhibition at 10 uM measured after 48 hrs by NCI protocol based SRB assay relative to control; assay type: functional; details: read-out: GI
CAKI-1 = assay: Antiproliferative activity against human CAKI-1 cells assessed as growth inhibition at 10 uM measured after 48 hrs by NCI protocol based SRB assay relative to control; assay type: functional; details: read-out: GI
RPMI-8226 = assay: Antiproliferative activity against human RPMI-8226 cells assessed as growth inhibition at 10 uM measured after 48 hrs by NCI protocol based SRB assay relative to control; assay type: functional; details: read-out: GI
UO-31 = assay: Antiproliferative activity against human UO-31 cells assessed as growth inhibition at 10 uM measured after 48 hrs by NCI protocol based SRB assay relative to control; assay type: functional; details: read-out: GI
786-0 = assay: Antiproliferative activity against human 786-0 cells assessed as growth inhibition at 10 uM measured after 48 hrs by NCI protocol based SRB assay relative to control; assay type: functional; details: read-out: GI
MDA-MB-468 = assay: Antiproliferative activity against human MDA-MB-468 cells assessed as growth inhibition at 10 uM measured after 48 hrs by NCI protocol based SRB assay relative to control; assay type: functional; details: read-out: GI
KM12 = assay: Antiproliferative activity against human KM12 cells assessed as growth inhibition at 10 uM measured after 48 hrs by NCI protocol based SRB assay relative to control; assay type: functional; details: read-out: GI
NCI-H522 = assay: Antiproliferative activity against human NCI-H522 cells assessed as growth inhibition at 10 uM measured after 48 hrs by NCI protocol based SRB assay relative to control; assay type: functional; details: read-out: GI
HCT-116 = assay: Antiproliferative activity against human HCT-116 cells assessed as growth inhibition at 10 uM measured after 48 hrs by NCI protocol based SRB assay relative to control; assay type: functional; details: read-out: GI
MDA-MB-435 = assay: Antiproliferative activity against human MDA-MB-435 cells assessed as growth inhibition at 10 uM measured after 48 hrs by NCI protocol based SRB assay relative to control; assay type: functional; details: read-out: GI
A549 = assay: Antiproliferative activity against human A549 cells assessed as growth inhibition at 10 uM measured after 48 hrs by NCI protocol based SRB assay relative to control; assay type: functional; details: read-out: GI
HT-29 = assay: Antiproliferative activity against human HT-29 cells assessed as growth inhibition at 10 uM measured after 48 hrs by NCI protocol based SRB assay relative to control; assay type: functional; details: read-out: GI
SNB-75 = assay: Antiproliferative activity against human SNB-75 cells assessed as growth inhibition at 10 uM measured after 48 hrs by NCI protocol based SRB assay relative to control; assay type: functional; details: read-out: GI
SK-MEL-2 = assay: Antiproliferative activity against human SK-MEL-2 cells assessed as growth inhibition at 10 uM measured after 48 hrs by NCI protocol based SRB assay relative to control; assay type: functional; details: read-out: GI
SR = assay: Antiproliferative activity against human SR cells assessed as growth inhibition at 10 uM measured after 48 hrs by NCI protocol based SRB assay relative to control; assay type: functional; details: read-out: GI
SK-MEL-5 = assay: Antiproliferative activity against human SK-MEL-5 cells assessed as growth inhibition at 10 uM measured after 48 hrs by NCI protocol based SRB assay relative to control; assay type: functional; details: read-out: GI
HCT-15 = assay: Antiproliferative activity against human HCT-15 cells assessed as growth inhibition at 10 uM measured after 48 hrs by NCI protocol based SRB assay relative to control; assay type: functional; details: read-out: GI
HOP-92 = assay: Antiproliferative activity against human HOP-92 cells assessed as growth inhibition at 10 uM measured after 48 hrs by NCI protocol based SRB assay relative to control; assay type: functional; details: read-out: GI
UACC-257 = assay: Antiproliferative activity against human UACC-257 cells assessed as growth inhibition at 10 uM measured after 48 hrs by NCI protocol based SRB assay relative to control; assay type: functional; details: read-out: GI
T47D = assay: Antiproliferative activity against human T47D cells assessed as growth inhibition at 10 uM measured after 48 hrs by NCI protocol based SRB assay relative to control; assay type: functional; details: read-out: GI
SNB-19 = assay: Antiproliferative activity against human SNB-19 cells assessed as growth inhibition at 10 uM measured after 48 hrs by NCI protocol based SRB assay relative to control; assay type: functional; details: read-out: GI
SN12C = assay: Antiproliferative activity against human SN12C cells assessed as growth inhibition at 10 uM measured after 48 hrs by NCI protocol based SRB assay relative to control; assay type: functional; details: read-out: GI
U-251 = assay: Antiproliferative activity against human U-251 cells assessed as growth inhibition at 10 uM measured after 48 hrs by NCI protocol based SRB assay relative to control; assay type: functional; details: read-out: GI
MOLT-4 = assay: Antiproliferative activity against human MOLT-4 cells assessed as growth inhibition at 10 uM measured after 48 hrs by NCI protocol based SRB assay relative to control; assay type: functional; details: read-out: GI
NCI-H226 = assay: Antiproliferative activity against human NCI-H226 cells assessed as growth inhibition at 10 uM measured after 48 hrs by NCI protocol based SRB assay relative to control; assay type: functional; details: read-out: GI
SF-268 = assay: Antiproliferative activity against human SF-268 cells assessed as growth inhibition at 10 uM measured after 48 hrs by NCI protocol based SRB assay relative to control; assay type: functional; details: read-out: GI
EKVX = assay: Antiproliferative activity against human EKVX cells assessed as growth inhibition at 10 uM measured after 48 hrs by NCI protocol based SRB assay relative to control; assay type: functional; details: read-out: GI
OVCAR-4 = assay: Antiproliferative activity against human OVCAR-4 cells assessed as growth inhibition at 10 uM measured after 48 hrs by NCI protocol based SRB assay relative to control; assay type: functional; details: read-out: GI
SK-OV-3 = assay: Antiproliferative activity against human SK-OV-3 cells assessed as growth inhibition at 10 uM measured after 48 hrs by NCI protocol based SRB assay relative to control; assay type: functional; details: read-out: GI
OVCAR-8 = assay: Antiproliferative activity against human OVCAR-8 cells assessed as growth inhibition at 10 uM measured after 48 hrs by NCI protocol based SRB assay relative to control; assay type: functional; details: read-out: GI
CCRF-CEM [3] = assay: Antiproliferative activity against human CCRF-CEM cells assessed as growth inhibition at 10 uM measured after 48 hrs by NCI protocol based SRB assay relative to control; assay type: functional; details: read-out: GI
CCRF-CEM [4] = assay: Antiproliferative activity against human CEM cells assessed as reduction in cell viability incubated for 72 hrs by resazurin dye based assay; assay type: functional
NCI-H460 = assay: Antiproliferative activity against human NCI-H460 cells assessed as growth inhibition at 10 uM measured after 48 hrs by NCI protocol based SRB assay relative to control; assay type: functional; details: read-out: GI
ACHN = assay: Antiproliferative activity against human ACHN cells assessed as growth inhibition at 10 uM measured after 48 hrs by NCI protocol based SRB assay relative to control; assay type: functional; details: read-out: GI
MV4-11 = assay: Antiproliferative activity against human MV4-11 cells assessed as reduction in cell viability incubated for 72 hrs by resazurin dye based assay; assay type: functional; details: MV4-11, 72 h
RS4-11 [5] = assay: Downregulation of HOXA9 protein expression in human RS4-11 cells at 5 to 20 uM measured after 24 hrs by Western blot analysis; assay type: functional, cell-based; details: dose 5-20 µM
RS4-11 [6] = assay: Induction of cell cycle arrest in human RS4-11 cells assessed as accumulation of cells in G2/M phase at 1.25 to 10 uM measured after 72 hrs by PI staining based flow cytometry analysis; assay type: functional; details: dose 1.25-10 µM
ML-2 = assay: Antiproliferative activity against human ML-2 cells assessed as reduction in cell viability incubated for 72 hrs by resazurin dye based assay; assay type: functional; details: ML-2, 72 h
RS4-11 [7] = assay: Antiproliferative activity against human RS4-11 cells assessed as reduction in cell viability incubated for 72 hrs by resazurin dye based assay; assay type: functional; details: RS4-11, 72 h
RS4-11 [8] = assay: Downregulation of MEIS1 protein expression in human RS4-11 cells at 5 to 20 uM measured after 24 hrs by Western blot analysis; assay type: functional, cell-based; details: dose 5-20 µM
RS4-11 [9] = assay: Induction of cell cycle arrest in human RS4-11 cells assessed as accumulation of cells in subG1 phase at 1.25 to 10 uM measured after 72 hrs by PI staining based flow cytometry analysis; assay type: functional; details: dose 1.25-10 µM
KOPN-8 = assay: Antiproliferative activity against human KOPN-8 cells assessed as reduction in cell viability incubated for 72 hrs by resazurin dye based assay; assay type: functional; details: KOPN-8, 72 h

- IC50 (K562 [1]): 24.9 µM
- IC50 (CCRF-CEM [4]): 36.5 µM
- IC50 (MV4-11): 35.3 µM
SMILES: COc1cc(-c2c(C#N)c(-c3ccco3)nc3c2c(-c2ccccc2)nn3-c2ccccc2)ccc1O
- inhibition of growth at 10 µM (MDA-MB-231): 17%
- inhibition of growth at 10 µM (SF-539): 13%
- inhibition of growth at 10 µM (UACC-62): 18%
- inhibition of growth at 10 µM (K562 [2]): 32%
- inhibition of growth at 10 µM (MCF7): 34%
- inhibition of growth at 10 µM (PC-3): 41%
- inhibition of growth at 10 µM (SW-620): 11%
- inhibition of growth at 10 µM (IGROV-1): 13%
- inhibition of growth at 10 µM (NCI/ADR-RES): 19%
- inhibition of growth at 10 µM (CAKI-1): 29%
- inhibition of growth at 10 µM (RPMI-8226): 21%
- inhibition of growth at 10 µM (UO-31): 27%
- inhibition of growth at 10 µM (786-0): 26%
- inhibition of growth at 10 µM (MDA-MB-468): 14%
- inhibition of growth at 10 µM (KM12): 15%
- inhibition of growth at 10 µM (NCI-H522): 30%
- inhibition of growth at 10 µM (HCT-116): 43%
- inhibition of growth at 10 µM (MDA-MB-435): 23%
- inhibition of growth at 10 µM (A549): 39%
- inhibition of growth at 10 µM (HT-29): 15%
- inhibition of growth at 10 µM (SNB-75): 27%
- inhibition of growth at 10 µM (SK-MEL-2): 11%
- inhibition of growth at 10 µM (SR): 34%
- inhibition of growth at 10 µM (SK-MEL-5): 20%
- inhibition of growth at 10 µM (HCT-15): 28%
- inhibition of growth at 10 µM (HOP-92): 33%
- inhibition of growth at 10 µM (UACC-257): 16%
- inhibition of growth at 10 µM (T47D): 34%
- inhibition of growth at 10 µM (SNB-19): 13%
- inhibition of growth at 10 µM (SN12C): 18%
- inhibition of growth at 10 µM (U-251): 15%
- inhibition of growth at 10 µM (MOLT-4): 47%
- inhibition of growth at 10 µM (NCI-H226): 15%
- inhibition of growth at 10 µM (SF-268): 25%
- inhibition of growth at 10 µM (EKVX): 31%
- inhibition of growth at 10 µM (OVCAR-4): 19%
- inhibition of growth at 10 µM (SK-OV-3): 15%
- inhibition of growth at 10 µM (OVCAR-8): 15%
- inhibition of growth at 10 µM (CCRF-CEM [3]): 25%
- inhibition of growth at 10 µM (NCI-H460): 28%
- inhibition of growth at 10 µM (ACHN): 12%

- IC50 (K562 [1]): 10.2 µM
- IC50 (RS4-11 [7]): 9.9 µM
- IC50 (CCRF-CEM [4]): > 25 µM
- IC50 (MV4-11): 11.6 µM
SMILES: N#Cc1c(-c2ccc(F)cc2)nc2c(c(-c3ccccc3)nn2-c2ccccc2)c1-c1ccc(O)cc1
- Activity (RS4-11 [5]): Active
- Activity (RS4-11 [6]): Active
- IC50 (ML-2): 6.7 µM
- Activity (RS4-11 [8]): Active
- Activity (RS4-11 [9]): Active
- IC50 (KOPN-8): 1.3 µM
